Experimental data taken from patent US4094899A, “Oxaprostaglandins” (Pfizer Inc., priority 1973, dated 1978).

Experiments:
[1] = test system: guinea pig ileum; assay: spasmogenic effect on guinea pig ileum in vitro; settings: Cavia porcellus, read-out: Guinea pig Ileum: threshold dose for spasmogenic effect
Source text: (§1) These tests include, among others, a test for effect on isolated smooth muscle from guinea pig ileum and rat uterus, a test for effect on histamine induced bronchospasm in guinea pig, a test for effects on dog blood pressure, a test for induction of diarrhea in mice, and a test for the induction of abortion in early pregnant rats.
^(d) Threshold dose for spasmogenic effect on guinea pig ileum in […]

[2] = test system: estrogenized rat uterus; assay: spasmogenic effect on estrogenized rat uterus in vitro; settings: read-out: Rat Uterus: threshold dose for spasmogenic effect
Source text: as §1
^(c) Threshold dose for spasmogenic effect on estrogenized rat uterus

[3] = target: norepinephrine stimulated lipolysis; assay: inhibition of norepinephrine stimulated lipolysis; settings: read-out: K: inhibition constant for norepinephrine stimulated lipolysis
Source text: ^(e) Inhibition constant for norepinephrine stimulated lipolysis.

[4] = test system: histamine induced bronchospasm in the guinea pig; assay: histamine induced bronchospasm in the guinea pig (aerosol); format: in vivo; settings: for Histamine Aerosol: per cent protection for histamine induced bronchospasm: 100 μg/ml aerosol dose, guinea pig
Experimental: as §1
^(b) Per cent protection by 100 μg/ml aerosol dose for histamine
induced bronchospasm in the guinea pig.

[5] = test system: anesthetized dog blood pressure; assay: depressor effect on anesthetized dog blood pressure; format: in vivo; settings: for Dog Blood Pressure: relative dose at which oxaprostaglandin derivative has similar action to PGE2 for depressor effect: anesthetized dog
Source text: as §1
^(a) Relative dose at which oxaprostaglandin derivative has similar
action to PGE2 for depressor effect on anesthetized dog blood

[6] = physiological tests taken together (Table I; comparison with natural prostaglandin); settings: in words; compared with natural prostaglandin; rat uterus vs guinea pig ileum
Source text: as §1
(§2) On the basis of the difference seen in the rat uterus and guinea pig ileum tests with 19 -oxaprostaglandin E2, one would expect to have a reduction of the unpleasant gastrointestinal side effects which were encountered when natural PGE2 was employed as an abortion inducer (Lancet, 536, 1971).

[7] = test system: mice; assay: induction of diarrhea in mice in vivo
Source text: as §1, §2

[8] = test system: early pregnant rat; assay: induction of abortion in early pregnant rats; format: in vivo
Source text: as §1, §2

Structure (SMILES)	minimal effective concentration [1] [µg/mL]	minimal effective concentration [2] [µg/mL]	Ki [3] [nM]	Histamine Aerosol: per cent protection for histamine induced bronchospasm [4] [%]	bronchodilator selectivity compared with natural PGE2 ([4]; in words, from Table I)	Dog Blood Pressure: relative dose at which oxaprostaglandin derivative has similar action to PGE2 for depressor effect [5]	selectivity with regard to blood pressure effects ([5]; in words, from Table I)	tissue selectivity [6]	effectiveness in inducing diarrhea relative to natural PGE2 [7] [%]	effectiveness in inducing abortion compared with natural PGE2 [8]
CCOCCC[C@H](O)/C=C/[C@H]1[C@H](O)CC(=O)[C@@H]1C/C=C\CCCC(=O)O [19-oxa-ω-homo-PGE2, 9-oxo-11α,15α-dihydroxy-19-oxa-cis-5-trans-13-w-homo-prostadienoic acid]	0.1	0.1	4000	38	more selective bronchodilator than natural PGE2	4	–	–	–	–
CCOCC[C@H](O)/C=C/[C@@H]1[C@@H](C/C=C\CCCC(=O)O)[C@@H](O)C[C@H]1O [18-oxa PGF2α, 9α,11α,15α-trihydroxy-18-oxa-cis-5-trans-13-prostadienoic acid]	0.1 to 0.3	0.3 to 0.6	–	–	–	–	–	–	–	–
CCOCC[C@H](O)/C=C/[C@H]1[C@H](O)CC(=O)[C@@H]1C/C=C\CCCC(=O)O [18-oxa PGE2, 9-oxo-11α,15α-dihydroxy-18-oxa-cis-5-trans-13-prostadienoic acid]	0.1 to 0.3	0.1 to 0.3	–	3	–	2	particularly selective with regard to its blood pressure effects	–	–	–
CCCCC[C@H](O)/C=C/[C@H]1[C@H](O)CC(=O)[C@@H]1C/C=C\CCCC(=O)O [PGE2, reference compound]	0.01 to 0.03	0.01 to 0.03	400	75	–	1	–	–	–	–
COCCC[C@H](O)/C=C/[C@@H]1[C@@H](C/C=C\CCCC(=O)O)[C@@H](O)C[C@H]1O [19-oxa PGF2α, 9α,11α,15α-trihydroxy-19-oxa-cis-5-trans-13-prostadienoicacid]	0.1 to 0.5	0.1 to 0.5	–	–	–	–	–	–	–	–
CCOCCC[C@H](O)/C=C/[C@@H]1[C@@H](C/C=C\CCCC(=O)O)[C@@H](O)C[C@H]1O [19-oxa-ω-homo-PGF2α, 9α,11α,15α-trihydroxy-19-oxa-cis-5-trans-13-ω-homoprostadienoic acid]	≥ 0.1	0.06 to 0.3	–	–	–	–	–	–	–	–
COCCC[C@H](O)/C=C/[C@H]1[C@H](O)CC(=O)[C@@H]1C/C=C\CCCC(=O)O [19-oxa PGE2, 9-oxo-11α,15α-dihydroxy-19-oxa-cis-5-trans-13-prostadienoic acid]	0.1 to 0.5	0.05 to 0.1	2500	19	–	20	–	tissue selectivity, particularly 19-oxaprostaglandin E2	10	as effective as natural PGE2
